Experimental findings from US9328093B2, “Selective inhibitors of ubiquitin specific protease 7, the pharmaceutical compositions thereof and their therapeutic applications” (HYBRIGENICS SA, priority 2010, dated 2016) are described below.

The target in test [1] is T1, USP7 (Homo sapiens, UniProt Q93009).
T1 construct: Full-length wild-type human USP7 and its catalytic mutant (cysteine 223 replaced by alanine, C223A) were produced as N-terminally His-tagged fusions; His (N); made in house; host or cells: Spodoptera frugiperda Sf9 (or High Five) insect cells, baculovirus pFastBac-HT-B
Nature of the test: USP7 assay with GST-Ub52-Flag substrate (HTRF). It is filed as biochemical. The following applies: USP7 200 pM. On the procedure:
(§1) For compounds 26 to 38, the in-vitro assays on USP7 and USP8 were carried out according to the following procedure
(§2) The present examples 26 to 38 makes it possible to validate the use of GST-Ub52-Flag in an assay based on the time-resolved measurement of fluorescence emitted by […] in homogenous medium.
(§3) The assay is carried out on multiwell assay plates. The plates are analyzed on a PHERAstar fluorimeter (BMG) after an overnight incubation at 4° C. (excitation 337 nm, emission 620 and 665 nm).
(§4) The reagents used were as follows: • Solution of USP7 at 200 pM and USP8 at 400 pM in 50 mM Tris HCl pH 7.6, Bovine Serum Albumin 0.05%, DTT 5 mM. • Anti-Flag-K (CIS bio international), solution at 0.2 μM in 0.8 M KF, 0.1 Bovine Serum Albumin, Tris HCl 25 mM pH 7.6. • Anti-GST antibody-XL665 conjugate (CIS bio international), solution at 2.6 μM in 0.8 M KF, 0.1% Bovine Serum Albumin, Tris HCl 25 mM pH 7.6. • GST-Ub52-flag solution at 14.75 μM & MBP_Ub52 at 37.7 μM are prepared by dilutions from the stock solution described above in 50 mM Tris HCl pH 7.6, EDTA 0.5 mM, Bovine Serum Albumin 0.05%, DTT 5 mM.
(§5) The enzyme reaction is carried out by mixing GST-Ub52-flag solution with 5 μl of USP7 solution (200 pM final) or 5 μl of USP8 (400 pM final). This mixture is incubated for one hour at room temperature on a multiwell assay plate. A 10 μl mixture of 5 μl of anti-Flag-K solution (0.2 μM) plus 5 μl of anti-GST-XL665 antibody (2.6 μM) is added to each well of the multiwell assay plate. The plate is read after an overnight incubation at 4° C. on a PHERAstar fluorimeter (BMG).
(§6) The decrease in the signal correlates with the increase in enzyme activity i.e. the cleavage of GST-Ub52-Flag substrate. The format used is therefore entirely suitable for a method of assaying an enzyme of the deubiquitinating type such as ubiquitin specific protease, but also for determining a modulator of this enzyme activity.
(§7) The same procedures as mentioned above for assaying the activity of enzymes of the deubiquitinating type are carried out but the various reaction mixtures are incubated with identical enzyme concentration, in the presence or absence of a test compounds 26 to 38. Data (mean values+/− standard deviation) were analyzed as % of control (no compound) and plotted as percentage versus the Log of the compound concentration using GraphPad (Prism).
(TR-FRET usually uses a lanthanide donor and a delayed reading to cut background.)

For test [2], the system named is HCT116 colon cancer cells. As to the kind of experiment: HCT116 cell viability and proliferation assay (MTS). The following applies: Homo sapiens, HCT-116, 72 h, HCT116, 72 hours, read-out: Cell viability (MTS): HCT116 GI50 Day3. The test is classed as cell-based. The method, then: HCT116 colon cancer cells were obtained from ATCC (American Type Culture Collection), and maintained in Mc Coy's 5A medium containing 10% FBS, 3 mM glutamine and 1% penicillin/streptomycin. Cells were incubated at 37° C. in a humidified atmosphere containing 5% CO2.
Cell viability was assayed using the MTS technique in 96-well culture plates (CellTiter 96® Aqueous Non-Radioactive Cell Proliferation Assay, Promega) according to the manufacturer's instructions. MTS (3-(4,5-dimethyl-thiazol-2-yl)-5-(3-carboxy-methoxyphenyl)-2-(4-sulfophenyl)-2H-tetra-zolium) is a MTT-derived tetrazolium that is reduced in metabolically active cells into a soluble, cell-permeant formazan. The amount of formazan, detected by its absorbance at 492 nm is proportional to the number of living, metabolically active cells.
10^3 HCT116 cells were seeded per well. 24 hours later, the medium was changed and the cells treated in triplicate with the concentrations of each compound from 100 μM to 50 nM. The compounds were diluted in 100% DMSO, whose final concentration on cells was kept at 0.5%.
Cells were incubated with the compounds for 72 hours, and their viability then assayed by the addition of MTS for 2 hours. Absorbance at 492 nm was measured directly from the 96-well culture plates. Gl50 (Growth Inhibition 50) concentrations for each compound were calculated using a sigmoidal variable slope fit (Prism 4.0, Graphpad Softwares). Values represent mean of three independent experiments.

Test [3] concerns the target T2, USP8 (Homo sapiens, UniProt P40818).
T2 construct: His (from pFastBac-HT vector) (N); made in house; host or cells: Sf9 or High Five insect cells, baculovirus
T2 sequence (P40818 1-1118): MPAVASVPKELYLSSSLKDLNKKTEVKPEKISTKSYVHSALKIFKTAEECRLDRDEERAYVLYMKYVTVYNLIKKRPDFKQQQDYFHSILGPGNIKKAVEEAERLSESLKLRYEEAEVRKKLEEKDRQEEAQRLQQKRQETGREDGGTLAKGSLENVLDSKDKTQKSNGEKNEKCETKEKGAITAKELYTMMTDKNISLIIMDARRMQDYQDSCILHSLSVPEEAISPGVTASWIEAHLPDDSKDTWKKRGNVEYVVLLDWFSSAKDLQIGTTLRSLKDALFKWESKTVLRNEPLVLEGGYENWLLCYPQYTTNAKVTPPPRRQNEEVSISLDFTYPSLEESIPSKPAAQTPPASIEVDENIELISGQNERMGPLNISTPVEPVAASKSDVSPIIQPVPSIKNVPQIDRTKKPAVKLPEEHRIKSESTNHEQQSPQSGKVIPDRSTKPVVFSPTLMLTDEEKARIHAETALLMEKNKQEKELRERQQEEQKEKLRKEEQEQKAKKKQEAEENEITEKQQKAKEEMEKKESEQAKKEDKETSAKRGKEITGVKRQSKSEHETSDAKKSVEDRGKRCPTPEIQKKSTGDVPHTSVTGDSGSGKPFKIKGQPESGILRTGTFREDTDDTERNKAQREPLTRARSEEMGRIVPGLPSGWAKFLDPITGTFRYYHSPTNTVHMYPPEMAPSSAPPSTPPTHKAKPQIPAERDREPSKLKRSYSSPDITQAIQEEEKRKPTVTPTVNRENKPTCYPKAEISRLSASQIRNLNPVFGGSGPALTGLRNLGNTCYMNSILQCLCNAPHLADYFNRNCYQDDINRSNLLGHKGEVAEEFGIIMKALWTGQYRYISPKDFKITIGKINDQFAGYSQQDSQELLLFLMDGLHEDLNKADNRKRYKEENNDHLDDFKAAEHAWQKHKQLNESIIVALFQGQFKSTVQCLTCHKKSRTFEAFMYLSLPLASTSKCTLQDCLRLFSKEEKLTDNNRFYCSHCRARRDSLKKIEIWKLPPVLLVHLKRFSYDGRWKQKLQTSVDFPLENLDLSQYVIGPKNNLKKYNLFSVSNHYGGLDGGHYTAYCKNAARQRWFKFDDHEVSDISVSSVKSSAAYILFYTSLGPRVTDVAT
As to the kind of experiment: USP8 assay with GST-Ub52-Flag substrate (HTRF). The following applies: USP8 400 pM. It is filed as biochemical. On the procedure: as §1, §2, §3, §4, §5, §6, §7

As for `O=C(NCCN1CCCCCC1)c1ccc2c(Cl)c3c(nc2c1)CCCC3` [Example 27, N-(2-(azepan-1-yl)ethyl)-9-chloro-5,6,7,8-tetrahydroacridine-3-carboxamide], the IC50 (commonly the concentration that inhibits the measured activity by half) in test [1] was 15.4 µM; in test [3], greater than 200 µM. The GI50 (in general, the concentration at which growth is held to half of that of the control) in test [2] is 10 µM. For the compound `CCN(CC)CCCC(C)NC(=O)c1ccc2c(Cl)c3c(nc2c1)CCCC3` (centres unmarked) [Example 35, 9-chloro-N-(5-(diethylamino)pentan-2-yl)-5,6,7,8-tetrahydroacridine-3-carboxamide], the IC50 in test [1] is 36.9 µM; in test [3], greater than 200 µM. The GI50 in test [2] was 8.2 µM. `CCN(CC)CCNC(=O)c1ccc2c(Cl)c3c(nc2c1)CCCC3` [Example 7, 9-Chloro-5,6,7,8-tetrahydro-acridine-3-carboxylic acid (2-diethylamino-ethyl)-amide]: the GI50 in test [2] worked out at 4.3 µM. Same read-out and setting: for `CCCCN(CC)CCNC(=O)c1ccc2c(Cl)c3c(nc2c1)CCCC3` [Example 4, 9-Chloro-5,6,7,8-tetrahydro-acridine-3-carboxylic acid [2-(butyl-ethyl-amino)-ethyl]-amide] the value was 4 µM. For the compound `CN(C)CCNC(=O)c1ccc2c(Cl)c3c(nc2c1)CCCC3` [Example 11, 9-Chloro-5,6,7,8-tetrahydro-acridine-3-carboxylic acid (2-dimethylamino-ethyl)-amide], the GI50 in test [2] amounted to 7.8 µM. Same read-out and setting: to `CN1CCN(CCCNC(=O)c2ccc3c(Cl)c4c(nc3c2)CCCC4)CC1` [Example 15, 9-Chloro-5,6,7,8-tetrahydro-acridine-3-carboxylic acid [3-(4-methyl-piperazin-1-yl)-propyl]-amide] belongs 7.4 µM.

As to `CN1CCC(N2CCN(C(=O)c3ccc4c(Cl)c5c(nc4c3)CCCC5)CC2)CC1` [Example 30, (9-chloro-5.6,7,8-tetrahydroacridine-3-yl)(4-(1-methylpiperidin-4-yl)piperazin-1-yl)methanone], the IC50 was 23 µM in test [1] and greater than 200 µM in test [3]. In test [2], the GI50 was 12.5 µM. With `O=C(c1ccc2c(Cl)c3c(nc2c1)CCCC3)N1CCC(N2CCCCC2)CC1` [Example 16, [1,4′]Bipiperidinyl-1′-yl-(9-chloro-5,6,7,8-tetrahydro-acridin-3-yl)-methanone], the GI50 in test [2] came to 13.5 µM. As for `O=C(NCC1CCN(CCCc2ccccc2)CC1)c1ccc2c(Cl)c3c(nc2c1)CCCC3` [Example 33, 9-chloro-N-((1-(3-phenylpropyl)piperidin-4-yl)methyl)-5,6,7,8-tetrahydroacridine-3-carboxamide], the IC50 in test [1] was 16.4 µM; in test [3] it was greater than 200 µM. Moreover, the GI50 in test [2] worked out at 2 µM. Regarding `CCCN1CCN(CCCNC(=O)c2ccc3c(Cl)c4c(nc3c2)CCCC4)CC1` [Example 13, 9-Chloro-5,6,7,8-tetrahydro-acridine-3-carboxylic acid [3-(4-propyl-piperazin-1-yl)-propyl]-amide], the GI50 in test [2] amounted to 5.9 µM.

In the case of `CCN1CCC[C@@H]1CNC(=O)c1ccc2c(Cl)c3c(nc2c1)CCCC3` [Example 36, (R)-9-chloro-N-((1-ethylpyrrolidin-2-yl)methyl)-5,6,7,8-tetrahydroacridine-3-carboxamide], the IC50 in test [1] was 44.4 µM; in test [3], greater than 200 µM. For the same compound, the GI50 in test [2] came out at 9.1 µM. Regarding `O=C(c1ccc2c(Cl)c3c(nc2c1)CCCC3)N1CCCCCC1` [Example 12, Azepan-1-yl-(9-chloro-5,6,7,8-tetrahydro-acridin-3-yl)-methanone], the GI50 in test [2] is 20 µM. Turning to `CCCN(CCC)CCCNC(=O)c1ccc2c(Cl)c3c(nc2c1)CCCC3` [Example 6, 9-Chloro-5,6,7,8-tetrahydro-acridine-3-carboxylic acid (3-dipropylamino-propyl)-amide], the GI50 in test [2] was 3.9 µM. The same measure, in the same setting: for `Cc1cccc(CN2CCC(CNC(=O)c3ccc4c(Cl)c5c(nc4c3)CCCC5)CC2)c1` [Example 1, 9-Chloro-5,6,7,8-tetrahydro-acridine-3-carboxylic acid [1-(3-methyl-benzyl)-piperidin-4-ylmethyl]-amide] the value was 2 µM; for `CCN1CCCC1CNC(=O)c1ccc2c(Cl)c3c(nc2c1)CCCC3` (centres unmarked) [Example 2, 9-Chloro-5,6,7,8-tetrahydro-acridine-3-carboxylic acid (1-ethyl-pyrrolidin-2-ylmethyl)-amide], 5 µM. As to `CC1CCCC(C)N1CCCNC(=O)c1ccc2c(Cl)c3c(nc2c1)CCCC3` (centres unmarked) [Example 9, 9-Chloro-5,6,7,8-tetrahydro-acridine-3-carboxylic acid [3-(2,6-dimethyl-piperidin-1-yl)-propyl]-amide], in test [2], the GI50 came to 3.6 µM.

As for `O=C(NCCCN1CCCC1)c1ccc2c(Cl)c3c(nc2c1)CCCC3` [Example 8, 9-Chloro-5,6,7,8-tetrahydro-acridine-3-carboxylic acid (3-pyrrolidin-1-yl-propyl)-amide], the GI50 in test [2] was 5.9 µM.

As to `CCN(CC)CCCNC(=O)c1ccc2c(Cl)c3c(nc2c1)CCCC3` [Example 10, 9-Chloro-5,6,7,8-tetrahydro-acridine-3-carboxylic acid (3-diethylamino-propyl)-amide], in test [2], the GI50 turned out to be 5 µM.

Turning to `CCCN(CCC)CCNC(=O)c1ccc2c(Cl)c3c(nc2c1)CCCC3` [Example 3, 9-Chloro-5,6,7,8-tetrahydro-acridine-3-carboxylic acid (2-dipropylamino-ethyl)-amide], the GI50 in test [2] came out at 3.5 µM.
